# Tests used:
# S. aureus NCTC8325 [1] = assay: MIC, broth microdilution; type: cell-based; settings: Staphylococcus aureus, NCTC8325, 20 h, read-out: MIC S. aureus NCTC8325
# B. subtilis 168 = assay: MIC, broth microdilution; type: cell-based; settings: Bacillus subtilis, 168, 20 h, read-out: MIC B. subtilis 168
# S. aureus NCTC8325 cells = assay: Protonophore assay, intracellular pH by BCECF AM; type: cell-based, Staphylococcus aureus; settings: 1× MIC, 10 min; for intracellular pH after compound addition: dropped from pH 7.8
# S. aureus NCTC8325 [2] = assay: Pore-forming assay, SYTO9/propidium iodide costaining; type: cell-based, Staphylococcus aureus; settings: 4× MIC; nisin 100 μg mL^–1; 35 min
# B. subtilis 168 cells = assay: Membrane dye FM 5–95 labeling after compound exposure; type: cell-based, Bacillus subtilis; settings: B. subtilis 168, 1× MIC, 15 min; CCCP 100 μM
# [3] = tested on: GFP-MinD in B. subtilis cells; assay: GFP-MinD localization; type: cell-based, Bacillus subtilis; settings: 10 min, 1× MIC, CCCP 100 μM
# S. aureus = settings: atropisomers compared; cited from earlier work
Molecule,MIC (S. aureus NCTC8325 [1]) [ng/mL],MIC (B. subtilis 168) [ng/mL],drop of intracellular pH (Δ) (S. aureus NCTC8325 cells) [pH units],intracellular pH after compound addition (S. aureus NCTC8325 cells),membrane integrity / pore formation (SYTO9/propidium iodide) (S. aureus NCTC8325 [2]),other results
"Oc1c(Br)cc(Br)cc1-c1[nH]c(Br)c(Br)c1Br [compound 2, pentabromopseudilin]",16,16,0.2,7.6,,
"Oc1c(Cl)cc(Cl)cc1-c1[nH]c(Cl)c(Cl)c1Cl [compound 3, pentachloropseudilin]",4,4,0.2,7.6,only green fluorescence,
"N#CC(C#N)=NNc1cccc(Cl)c1 [CCCP, carbonyl cyanide m-chlorophenyl hydrazone]",,,,,,"localization of membrane dye FM 5–95 after treatment (B. subtilis 168 cells): aggregated, inhomogeneous, “spotty” localization; GFP-MinD localization after treatment [3]: diffuse and spotty"
nisin [reference compound],,,,,clear red fluorescence indicative of pore formation,
"O=C(c1ccccc1O)c1[nH]c(Cl)c(Cl)c1-n1c(C(=O)c2ccccc2O)cc(Cl)c1Cl (atropisomer, axis not shown; (M)) [(−)-(M)-MarA]",,,,,,potency against S. aureus (S. aureus): equal potency
